The values below come from BindingDB's records for doi:10.1021/jm801627a (Vernalis (R&D), 2009).

The assay concerns the target Heat shock 70 kDa protein 1A (Homo sapiens, UniProt P0DMV8). Description: HSP70 Fluorescence Polarization Assay. The note with it: pH 7.4; 23 °C. The method, then:
A fluorescein-labeled ATP-based probe was utilized, which binds to the GST fused ATPase domain (amino acids 3-383) of HSP70, producing an increase in mP. The presence of a compound which competitively binds to the same site as the probe would lead to decreased mP values, by increasing the amount of free probe. Compounds were tested as 10-point IC50s. Assay mixtures were incubated for three hours prior to reading on the Fusion (ex 485 nm; em 535 nm). The data was fitted using a 4 parameter logistical data model by XLFit 4 (IDBS).

Chain of Heat shock 70 kDa protein 1A (P0DMV8 whole entry, the tested form may be a part): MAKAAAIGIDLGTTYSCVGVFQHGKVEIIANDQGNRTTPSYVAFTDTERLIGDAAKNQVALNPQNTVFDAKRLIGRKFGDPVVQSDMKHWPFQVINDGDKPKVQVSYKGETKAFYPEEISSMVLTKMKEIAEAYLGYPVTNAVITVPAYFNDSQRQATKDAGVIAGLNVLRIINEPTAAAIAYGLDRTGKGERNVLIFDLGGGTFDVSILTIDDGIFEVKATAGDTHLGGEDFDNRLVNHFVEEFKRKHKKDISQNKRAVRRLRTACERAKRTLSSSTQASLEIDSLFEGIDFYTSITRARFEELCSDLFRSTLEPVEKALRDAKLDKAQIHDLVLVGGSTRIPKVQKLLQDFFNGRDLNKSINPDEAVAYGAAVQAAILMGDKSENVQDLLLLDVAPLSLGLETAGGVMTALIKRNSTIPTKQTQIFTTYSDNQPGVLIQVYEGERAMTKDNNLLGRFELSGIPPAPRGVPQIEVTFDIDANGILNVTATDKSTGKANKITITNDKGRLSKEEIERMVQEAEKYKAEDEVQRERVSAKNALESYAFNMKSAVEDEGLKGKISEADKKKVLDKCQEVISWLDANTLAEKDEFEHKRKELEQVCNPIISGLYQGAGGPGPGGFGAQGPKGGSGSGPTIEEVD

Consider `Nc1ncnc2c1nc(NCc1ccc3ncccc3c1)n2[C@@H]1O[C@H](COCc2cc(F)c(F)c(F)c2)[C@@H](O)[C@H]1O` [adenosine-derived inhibitor, 17], for which the IC50 was under 0.4 µM.

What is called IC50 is the concentration at which inhibition is half-maximal. Low readings indicate higher potency, high ones lower potency.
